The text below walks through data of US9212359B2, “Systems for induction of gene expression and protein depletion in yeast” (priority 2011, dated 2015).

A value given as a limit tells only on which side of the number the result lay.

Holding throughout (format): cell-based, S. cerevisiae
Data set [1] deals with DBY12021. In words: Growth curves in YPD liquid with β-estradiol. Here is the method:
100 μL of cells+media were grown on flat-bottom 96-well plates (Costar #3631). A600 was measured every 15 minutes in a Synergy HT (Biotek; Vermont) microplate reader. Cells were grown at 30° C. with medium shaking. Growth rates were computed with spline-fits using the grofit R package (KAHM et al. 2010).

In data set [2] the test system is GEV-GFP. Put plainly: GEV-GFP nuclear localization after β-estradiol pulse, single-cell microscopy (DBY11415). Here is the method: Fluorescence was measured with an epifluorescence Nikon Eclipse-TI inverted microscope using a Nikon 40×/0.95NA DIC Plan Apo objective. The microscope is equipped with a PerfectFocus system (Nikon) for maintaining the correct focal plane, a Clara CCD Camera (Andor DR328G) for recording fluorescence emission, and a TI-S-ER motorized stage with encoders to ensure near perfect return to marked stage positions (Nikon MEC56100). GEV-GFP emission was visualized at 525 nm (50-nm bandwidth) upon excitation at 470 nm (40-nm bandwidth) (Chroma #49002_Nikon ETGFP filter cube). […]
Overnight cultures of DBY11415 (MATa/MATα HTB2-mCherry-caURA3/HTB2 his3/HIS3, (gal1+PGAL10):: loxP/GAL1, gal4::LEU2/GAL4, HAP1+/hap1−, leu2Δ0::PACT1-GEV-GFP-KanMX/LEU2) were grown in LFM overnight to saturation. […] The Klett was monitored, and at Klett 40 cells were loaded into 96-well glass-bottomed optical plates for microscopy (Nunc #265300). […]
Image processing was performed by preprocessing the images in ImageJ and then using a custom written Matlab script to extract the intensities in the nuclei relative to the cytoplasm. Briefly, the image processing was done as follows: Fluorescence images were background subtracted using the rolling ball background subtraction command in ImageJ using a ball radius of 50 pixels. […]
These preprocessed images were then analyzed using a custom-written Matlab script. […]

Data set [3] deals with DBY12021. In words: Genome-wide expression after β-estradiol pulse in phosphate-limited chemostat, microarray (DBY12021). Here is the method:
(§1) For induction experiments, yeast were cultured in 500 mL chemostats (Sixfors; Bottmingen, Switzerland) under phosphate-limitation (20 mg/L potassium phosphate) and pulsed with 1 μM β-estradiol (Tocris Biosciences; Missouri). For the MET4 induction experiment, phosphate-limited media was supplemented with 200 mg/L methionine. Culture volume was maintained at 300 mL. 12-18 hours of batch phase growth prior to pump turn-on was initiated from a 1/60 dilution of cells grown overnight in the same medium. Cultures were grown at 30° C., stirred at 400 RPM, and aerated at 5 L/min with filtered humidified air.
RNA from cells was extracted, labeled, and hybridized to Agilent expression microarrays as described by (Brauer et al., 2008) with slight modifications. Briefly, RNA was extracted from frozen cells with a standard acid-phenol method and then cleaned with RNeasy (Qiagen). Cleaned mRNA was then converted to cDNA and subsequently converted to labeled cRNA with the Agilent Quick-Amp Labeling Kit (Part No. 5190-0424). Microarray hybridizations were performed for 17 hours at 65° C. and rotated on a rotisserie at 20 RPM. Microarrays were washed and then scanned with Agilent Feature Extractor Software version 9.5. Flagged features marked as unreliable were marked N/A. Raw green- and red-channel intensities were floored to a value of 350 (i.e., intensities below 350 were set equal to 350). If the numerator (red-channel, sample RNA) for a given measurement was floored, the denominator (green-channel, reference RNA) for that measurement was set to the average green channel intensity for that gene. The purpose of this smoothing process is to make genes with negligible red-channel signal intensity less sensitive to small fluctuations in the reference intensity. After flooring of the data, the log 2 ratios were computed.
For time series experiments, 5 mL of cells were taken per culture per time point. Reference RNA was taken from DBY12001 grown in a phosphate-limited chemostat at a dilution rate of 0.18 h^−1. Enrichment for gene ontology (GO) terms was determined using GO-term finder (Boyle et al., 2004).

The test system of data set [4] is PGAL1-CBF1. In words: GEV-mediated induction of PGAL1-CBF1 transcript, microarray (DBY12040). The following applies: by 5 minutes following addition of β-estradiol. Here is the method:
as §1
RNA from cells was extracted, labeled, and hybridized to Agilent expression microarrays as described by (Brauer et al., 2008) with slight modifications. Briefly, RNA was extracted from frozen cells with a standard acid-phenol method and then cleaned with RNeasy (Qiagen). Cleaned mRNA was then converted to cDNA and subsequently converted to labeled cRNA with the Agilent Quick-Amp Labeling Kit (Part No. 5190-0424). Microarray hybridizations were performed for 17 hours at 65° C. and rotated on a rotisserie at 20 RPM. Microarrays were washed and then scanned with Agilent Feature Extractor Software version 9.5. […]
For time series experiments, 5 mL of cells were taken per culture per time point. […] Enrichment for gene ontology (GO) terms was determined using GO-term finder (Boyle et al., 2004).

In data set [5] the test system is TEV protease / N-end rule degradation. Put plainly: Western blot of N-degron-tagged proteins after GEV-mediated induction of TEV. The following applies: 1 μM β-estradiol, YPD; for half-life of NDeg-tagged protein: power-law fit of 10, 20 and 40-minute timepoints. The protocol: Total protein was extracted from ˜10 mL aliquots of cultures at ˜2×10^7 cells/mL using YPX extraction kit (Protein Discovery, Knoxville, Tenn.) with the addition of protease inhibitors (Roche tablets, cat#11836170001). Proteins were separated using Invitrogen NuPage precast 10% Bis-Tris gels and transferred to Invitrolon PVDF (Invitrogen cat#LC2005) according to the manufacturer's protocols. Primary antibody for the β-Myc epitope was mouse anti-human c-Myc from BD Pharmingen (cat#51-1485GR). Secondary antibody was goat anti-mouse-HRP (cat#115-035-003) from Jackson ImmunoResearch. Primary antibody dilution was typically 1/1000 and secondary antibodies were used at 1/10,000 dilution. Immunoreactive peptides were detected by incubation with ECL^+ detection reagent (Amersham/GE RPN2132) and imaging on HyBlot CL autoradiography film (Denville Scientific, Metuchen, N.J.). As a loading control, blots were probed with mouse monoclonal anti-β-Actin antibody loading control cat#ab8224, Abcam, Cambridge, Mass. ( 1/600 or 1/2000). Secondary antibody was as above, goat anti-mouse-HRP. Protein levels were quantified with the “Gel Analysis” feature in ImageJ and normalized to the t=0 levels in each time course.
MET4 and MET31 genes were chosen for use in a proof of principle experiment to exemplify the protein depletion method (FIG. 8). We constructed Ndeg-modified MET4 and MET31 alleles in separate strains containing GEV and PGAL1-TEV (see Materials and Methods). Cells were grown in rich medium (YPD) and treated with 1 μMβ-estradiol at ˜2×10^7 cells/mL. Western blots were performed on proteins extracted at several time points after induction (FIG. 9). Treatment of cultures with 1 μM β-estradiol had no effect on levels of Met4p-13Myc or Met31p-13Myc lacking NDeg (FIG. 9A, 9B).
In general terms: In western blotting, separated proteins are transferred to a membrane and probed.

Where [6] appears, read: two hours following saturating (1 μM) β-estradiol addition.

As to `C[C@]12CC[C@@H]3c4ccc(O)cc4CC[C@H]3[C@@H]1CC[C@@H]2O` [β-estradiol], the “effect on growth of GEV-containing cells” value in data set [1] (10 nM β-estradiol) was “no longer show the growth defect”. In addition, the “effect on growth of GEV-containing cells” value in data set [1] (high concentrations of β-estradiol) was “slowing of growth”. The “β-estradiol toxicity, growth of a strain lacking the GEV system” value in data set [1] (strain lacking the GEV system) is given as “slow growth does not occur”. Moreover, the “concentration at which the initial rate of localization achieved its maximum” value in data set [2] was at least 1 µM. Also, the “share of the entire genome affected by GEV-mediated activation” value in data set [3] (3-hour time course, K-means clustering of time course data) was “less than 2%”. Also, the “share of all S. cerevisiae genes changed 2-fold” value in data set [3] (two hours following 1 μM β-estradiol) is on record as “about 3%”. For the same molecule, in data set [3] (setting [6]), the “number of genes that decrease 2-fold” value was determined as 105 genes and the “number of genes that increase 2-fold” value was determined as 94 genes. Moreover, the “CBF1 transcript level, share of maximal value” in data set [4] is listed as about 70%.

B1: NDeg-Met31p-13Myc: N-degron-tagged, 13Myc-tagged Met31p target protein (DBY12234) (protein, UniProt Q03081 1-177, looked up)
Transcriptional regulator …: MKLAQDMNVDEIFLKQAAEAIAVISSSPTHTDPIIRELLHRIRQSSPLSAVIPAPENVLKAGEPENMARGLIRIPETQTKRTGGNNHSKEGAQLYSCAKCQLKFSRSSDLRRHEKVHSLVLPHICSNCGKGFARKDALKRHSNTLTCQRNRKKLSEGSDVDVDELIKDAIKNGTGLL
modifications: N-degron tag, 13Myc tag
On to B1, for which the “half-life of NDeg-tagged protein” value in data set [5] was 13.75 min.

B2: Met31p-13Myc: 13Myc-tagged Met31p lacking NDeg (DBY12235), control protein (protein, UniProt Q03081 1-177, looked up)
Transcriptional regulator …: MKLAQDMNVDEIFLKQAAEAIAVISSSPTHTDPIIRELLHRIRQSSPLSAVIPAPENVLKAGEPENMARGLIRIPETQTKRTGGNNHSKEGAQLYSCAKCQLKFSRSSDLRRHEKVHSLVLPHICSNCGKGFARKDALKRHSNTLTCQRNRKKLSEGSDVDVDELIKDAIKNGTGLL
modifications: C-terminal 13Myc tag
notes: 13Myc-tagged Met31p lacking NDeg (DBY12235), control protein
Consider B2, for which, in data set [5], the “effect of β-estradiol treatment on levels of protein lacking NDeg” value is recorded as “no effect”.

B3: NDeg-Met4p-13Myc: N-degron-tagged, 13Myc-tagged Met4p target protein (DBY12055) (protein, UniProt P32389 1-672, looked up)
Transcriptional activator of …: MKQEQSHEGDSYSTEFINLFGKDTATHPSSNNGANNNGMGSTNSLDQFVATASSSSSLVTSSENRRPLIGDVTNRGNTNLYDHAVTPEILLEQLAYVDNFIPSLDNEFSNVDWNVNTTHNNANNNGADTFSSINANPFDLDEQLAIELSAFADDSFIFPDEDKPSNNNNNSNNGNDDHSNHDVLHEDPSTNNRQRNPHFLTQRRNTFLTSQYDQSKSRFSSKNKRNGNNGETNNFGDNMQNNHPFEPNFMGSPSQFPADATNMTSIDHGGFTNVDITSTENNTTGDNGVDALSNLLHRTTHTPNRSSPLSNVTSAQNSSSQQRKHSESKVDSNSDNNSSNKAPNITVPDYSIIPTSVLVTLLPRVNVPNGAYNSLISAGFDNDQIDAIAAIMAYHHQKKIRENNSNNNKNINTNDSQEAPILKNINELLSVLIPPSPAETRGPTTLSTSPSFNEHGVVAEASFLSSILELGIKHPKSNNIHNQRQPSRNDHKISRESDGNNGNDNVHHNNAVIKSSTTRGDEIAKIRSEPTLNASSSDHKENSLKRSHSGDLKNKKVPVDRKYSDNEDDEYDDADLHGFEKKQLIKKELGDDDEDLLIQSKKSHQKKKLKEKELESSIHELTEIAASLQKRIHTLETENKLLKNLVLSSGETEGIKKAESLKKQIFEKVQKE
modifications: N-degron tag; 13Myc tag
With B3, in data set [5], the “half-life of NDeg-tagged protein” value stood at 16 min.

B4: Met4p-13Myc: 13Myc-tagged Met4p lacking NDeg (DBY11440), control protein (protein, UniProt P32389 1-672, looked up)
Transcriptional activator of …: MKQEQSHEGDSYSTEFINLFGKDTATHPSSNNGANNNGMGSTNSLDQFVATASSSSSLVTSSENRRPLIGDVTNRGNTNLYDHAVTPEILLEQLAYVDNFIPSLDNEFSNVDWNVNTTHNNANNNGADTFSSINANPFDLDEQLAIELSAFADDSFIFPDEDKPSNNNNNSNNGNDDHSNHDVLHEDPSTNNRQRNPHFLTQRRNTFLTSQYDQSKSRFSSKNKRNGNNGETNNFGDNMQNNHPFEPNFMGSPSQFPADATNMTSIDHGGFTNVDITSTENNTTGDNGVDALSNLLHRTTHTPNRSSPLSNVTSAQNSSSQQRKHSESKVDSNSDNNSSNKAPNITVPDYSIIPTSVLVTLLPRVNVPNGAYNSLISAGFDNDQIDAIAAIMAYHHQKKIRENNSNNNKNINTNDSQEAPILKNINELLSVLIPPSPAETRGPTTLSTSPSFNEHGVVAEASFLSSILELGIKHPKSNNIHNQRQPSRNDHKISRESDGNNGNDNVHHNNAVIKSSTTRGDEIAKIRSEPTLNASSSDHKENSLKRSHSGDLKNKKVPVDRKYSDNEDDEYDDADLHGFEKKQLIKKELGDDDEDLLIQSKKSHQKKKLKEKELESSIHELTEIAASLQKRIHTLETENKLLKNLVLSSGETEGIKKAESLKKQIFEKVQKE
modifications: 13Myc tag
notes: 13Myc-tagged Met4p lacking NDeg (DBY11440), control protein
Regarding B4, in data set [5], the “effect of β-estradiol treatment on levels of protein lacking NDeg” value is “no effect”.
